Measurements taken from US10556907B2 (AbbVie Inc., priority 2015, dated 2020).

Key:
Test in all cases: Method 1: intracellular Ca2+ release (FLIPR, Calcium 5) in recombinant CHO-K1 cells
Type in all cases: cell-based
[1] = molecular target: T1, human S1PR1 receptor (Homo sapiens, UniProt P21453); settings: (1): determined with method 1; read-out: S1P1 EC50
T1 construct: host or cells: CHO-K1
Method: (§1) Agonistic activity was measured using two different methods, described below.
(§2) Method 1. Intracellular Ca^2+ Release
(§3) Agonist potency and intrinsic activity was assessed by measurement of intracellular Ca^2+ release. Recombinant CHO-K1 cells (Euroscreen, Brussels, Belgium) expressing human S1PR5, S1PR1, S1PR3 or S1PR4 receptors, aequorin, and GTP binding protein Gq/i5 were cultured using a medium containing nutrient mixture F-12 Ham (Sigma-Aldrich) with 10% FBS, and 100 μg/mL gentamicin and equilibrated at 5% CO2.
(§4) 15.000 cells in 20 μL medium were seeded into Biocoat poly-D-Lysine coated 384 well plates (Becton Dickinson #35-6663) and grown to 95% confluency after 24 h.
(§5) Culture medium was replaced by an assay buffer consisting of HBBS with Ca^2+ and Mg^2+ (Invitrogen #14025-050), 20 mmol/L Hepes (Sigma-Aldrich #H-3375), 2.5 mmol/L probenecid (Sigma-Aldrich #P-8761, and 0.1% BSA (Sigma-Aldrich #A-7030) pH 7.4. The Calcium 5 no-wash FLIPR assay kit (Molecular Devices #5000625) was performed as described in the kit instructions. Cells were incubated with Calcium 5 dye for 1 h at 37° C., 5% CO2 in the dark. After 45 min adaptation to RT assessment of agonist stimulation of intracellular Ca^2+ release was performed by addition of test compounds at concentrations obtained by serial dilution. Phospho-fingolimod was used as positive control. Antagonists were pre-incubated for 10 min with cells before addition of the agonist (phospho-fingolimod at EC80). Measurements were performed using a fluorometric imaging plate reader FLIPR® tetra (Molecular Devices). Agonist at the human S1P receptors were characterized by deducing EC50 (potency) values from a nonlinear fit to the measured fluorescence raw data after normalization to the reference agonist (phospho-fingolimod) curve.

[2] = molecular target: T2, human S1PR3 receptor (Homo sapiens, UniProt Q99500); settings: (1): determined with method 1; read-out: S1P3 EC50
T2 construct: host or cells: CHO-K1
T2 sequence (Q99500 whole entry): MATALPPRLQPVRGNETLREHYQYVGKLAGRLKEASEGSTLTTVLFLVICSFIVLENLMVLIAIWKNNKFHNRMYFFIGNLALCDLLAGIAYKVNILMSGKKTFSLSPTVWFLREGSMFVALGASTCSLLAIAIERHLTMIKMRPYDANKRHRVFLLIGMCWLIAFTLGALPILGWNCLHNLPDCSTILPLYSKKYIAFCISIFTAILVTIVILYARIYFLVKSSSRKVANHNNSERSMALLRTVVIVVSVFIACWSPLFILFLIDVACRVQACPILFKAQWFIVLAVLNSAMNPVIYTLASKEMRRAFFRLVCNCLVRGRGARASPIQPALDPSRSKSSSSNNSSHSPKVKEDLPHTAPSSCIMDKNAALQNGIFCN
Method: as §1, §2, §3, §4, §5

[3] = molecular target: T3, human S1PR5 receptor (Homo sapiens, UniProt Q9H228); settings: agonist potency, determined with method 1 (symbols A-D); read-out: S1P5 EC50 range
T3 construct: host or cells: CHO-K1
T3 sequence (Q9H228 whole entry): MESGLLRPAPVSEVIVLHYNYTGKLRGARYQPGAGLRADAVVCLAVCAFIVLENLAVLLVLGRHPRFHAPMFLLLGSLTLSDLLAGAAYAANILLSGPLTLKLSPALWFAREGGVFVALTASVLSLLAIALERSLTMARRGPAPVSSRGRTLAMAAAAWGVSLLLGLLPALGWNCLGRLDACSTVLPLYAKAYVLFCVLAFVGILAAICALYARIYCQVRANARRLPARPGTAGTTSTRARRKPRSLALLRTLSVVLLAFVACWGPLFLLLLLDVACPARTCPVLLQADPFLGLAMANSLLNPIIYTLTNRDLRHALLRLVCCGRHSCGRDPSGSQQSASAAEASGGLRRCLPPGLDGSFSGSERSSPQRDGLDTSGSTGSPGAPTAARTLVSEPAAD
Method: as §1, §2, §3, §4, §5

T1 sequence (P21453 whole entry): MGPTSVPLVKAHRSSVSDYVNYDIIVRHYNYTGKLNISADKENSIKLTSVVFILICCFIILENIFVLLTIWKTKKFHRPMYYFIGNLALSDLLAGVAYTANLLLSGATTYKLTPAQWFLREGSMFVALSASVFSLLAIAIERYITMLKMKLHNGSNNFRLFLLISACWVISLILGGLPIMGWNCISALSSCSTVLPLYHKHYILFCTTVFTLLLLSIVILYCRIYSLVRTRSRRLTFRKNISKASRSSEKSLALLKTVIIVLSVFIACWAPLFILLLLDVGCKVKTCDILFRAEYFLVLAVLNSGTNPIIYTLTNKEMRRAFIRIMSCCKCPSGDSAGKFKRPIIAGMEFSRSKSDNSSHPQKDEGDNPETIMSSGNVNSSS

Row | Structure (SMILES) | EC50 [1] | EC50 [2] | EC50 [3]
1 | CC(C)Oc1ccc(-c2ncc3c(n2)CCN(CCC(=O)O)C3)cc1Cl [Compound 79, 3-(2-(3-chloro-4-isopropoxyphenyl)-7,8-dihydropyrido[4,3-d]pyrimidin-6(5H)-yl)propanoic acid] | > 1000 nM | > 1000 nM | 1000 to 10000 nM
2 | O=C(O)CCN1CCc2nc(-c3ccc(OCc4ccccc4OC(F)(F)F)cc3)ncc2C1 [Compound 84, 3-(2-(4-((2-(trifluoromethoxy)benzyl)oxy)phenyl)-7,8-dihydropyrido[4,3-d]pyrimidin-6(5H)-yl)propanoic acid] | > 1000 nM | > 1000 nM | 10 to 100 nM
3 | O=C(O)CCN1CCc2nc(-c3ccc(OCc4ccccc4OC(F)F)cc3)ncc2C1 [Compound 90, 3-(2-(4-((2-(difluoromethoxy)benzyl)oxy)phenyl)-7,8-dihydropyrido[4,3-d]pyrimidin-6(5H)-yl)propanoic acid] | > 1000 nM | > 1000 nM | 10 to 100 nM
4 | Cc1ccc(C(F)(F)F)c(COc2ccc(-c3ncc4c(n3)CCN(CCC(=O)O)C4)cc2)c1 [Compound 91, 3-(2-(4-((5-methyl-2-(trifluoromethyl)benzyl)oxy)phenyl)-7,8-dihydropyrido[4,3-d]pyrimidin-6(5H)-yl)propanoic acid] | > 1000 nM | > 1000 nM | 100 to 1000 nM
5 | Cc1cc(OC(F)(F)F)ccc1COc1ccc(-c2ncc3c(n2)CCN(CCC(=O)O)C3)cc1 [Compound 93, 3-(2-(4-((2-methyl-4-(trifluoromethoxy)benzyl)oxy)phenyl)-7,8-dihydropyrido[4,3-d]pyrimidin-6(5H)-yl)propanoic acid] | < 1000 nM | > 1000 nM | < 10 nM
6 | Cc1c(COc2ccc(-c3ncc4c(n3)CCN(CCC(=O)O)C4)cc2)cccc1C(F)(F)F [Compound 94, 3-(2-(4-((2-methyl-3-(trifluoromethyl)benzyl)oxy)phenyl)-7,8-dihydropyrido[4,3-d]pyrimidin-6(5H)-yl)propanoic acid] | < 1000 nM | > 1000 nM | < 10 nM

Second part, the compound after the results:

Row | EC50 [1] | EC50 [2] | EC50 [3] | Structure (SMILES)
7 | > 1000 nM | > 1000 nM | < 10 nM | O=C(O)CCN1CCc2nc(-c3ccc(OCc4ccc(C(F)F)cc4)cc3)ncc2C1 [Compound 77, 3-(2-(4-((4-difluoromethylbenzyl)oxy)phenyl)-7,8-dihydropyrido[4,3-d]pyrimidin-6(5H)-yl)propanoic acid]
8 | > 1000 nM | > 1000 nM | < 10 nM | O=C(O)CCN1CCc2nc(-c3ccc(OCc4ccccc4C(F)F)cc3)ncc2C1 [Compound 78, 3-(2-(4-((2-difluoromethylbenzyl)oxy)phenyl)-7,8-dihydropyrido[4,3-d]pyrimidin-6(5H)-yl)propanoic acid]
9 | > 1000 nM | > 1000 nM | < 10 nM | CSc1ccc(COc2ccc(-c3ncc4c(n3)CCN(CCC(=O)O)C4)cc2)cc1 [Compound 80, 3-(2-(4-((4-(methylthio)benzyl)oxy)phenyl)-7,8-dihydropyrido[4,3-d]pyrimidin-6(5H)-yl)propanoic acid]
10 | > 1000 nM | > 1000 nM | < 10 nM | O=C(O)CCN1CCc2nc(-c3ccc(OCc4ccc(C(F)(F)F)cc4)cc3)ncc2C1 [Compound 81, 3-(2-(4-((4-(trifluoromethyl)benzyl)oxy)phenyl)-7,8-dihydropyrido[4,3-d]pyrimidin-6(5H)-yl)propanoic acid]
11 | > 1000 nM | > 1000 nM | < 10 nM | O=C(O)CCN1CCc2nc(-c3ccc(OCc4cccc(C(F)(F)F)c4)cc3)ncc2C1 [Compound 86, 3-(2-(4-((3-(trifluoromethyl)benzyl)oxy)phenyl)-7,8-dihydropyrido[4,3-d]pyrimidin-6(5H)-yl)propanoic acid]
12 | > 1000 nM | > 1000 nM | 10 to 100 nM | O=C(O)CCN1CCc2nc(-c3ccc(OCc4cccc(OC(F)F)c4)cc3)ncc2C1 [Compound 92, 3-(2-(4-((3-(difluoromethoxy)benzyl)oxy)phenyl)-7,8-dihydropyrido[4,3-d]pyrimidin-6(5H)-yl)propanoic acid]
